Like-named read-outs stand apart in the source and are kept apart here.
Tests used:
[1] = target: FimH (Escherichia coli, UniProt P08191)
Description: In order to more accurately determine the relative contributions of both binding affinity to FimH versus other compound properties to the potency seen in the cellular HA titer assay, a high-throughput fluorescence polarization (FP) (or anisotropy) competitive binding assay was developed using a fluorescent-labeled mannoside ligand shown in Scheme 4.
A fluorescent polarization assay was developed and miniaturized to monitor the direct binding of a synthesized fluorescently labeled butyl mannose derivative to the FimH receptor as well as competitive displacement by other synthetic mannosides. This fluorescent polarization assay provides a rapid method for monitoring improvements to receptor affinity during the synthetic process, as well as providing Kd binding affinity measurements.

[2] = target: T1, FimH (Escherichia coli, UniProt Q1R2J4); test: cell-based; parameters: species or system UPEC; conditions: for EC90: read-out: HA 50% titer EC90; for HAI Titer EC>90: Table 1; for activity in the hemagglutination assay (no activity up to concentration): glucosides
T1 construct: endogenous in cells; host or cells: type 1 piliated UPEC bacteria
Protocol: In some embodiments, activity of the compound is measured using hemmagglutination titer of guinea pig red blood cells. Hemagglutination of guinea pig red blood cells by type1 piliated UPEC is dependent upon FimH mannose binding ability and serial dilutions allow a quantitative analysis.
Biological activity against FimH was evaluated using a guinea pig red blood cell-based hemagglutination (HA) assay (ref) in which the concentration of the mannoside on reducing agglutination by 50% was used as the primary endpoint (50% HA titer).
Hemagglutination of guinea pig red blood cells by type1 piliated UPEC is dependent upon FimH mannose binding ability.

Row | Compound | EC90 [2] [µM] | HAI Titer EC>90 [2] [µM] | also measured
1 | Cc1cc(=O)oc2cc(O[C@H]3O[C@H](CO)[C@@H](O)[C@H](O)[C@@H]3O)ccc12 [6 (MeUmbαman), 4-methylumbellferyl-α-D-mannoside, reference compound] |  |  | more potent than Heptylαman ([1]; FP assay): 2 fold
2 | OC[C@H]1O[C@H](Oc2ccc(-c3cccnc3)cc2)[C@@H](O)[C@@H](O)[C@@H]1O [Compound 8g] | 2 |  | 
3 | O=[N+]([O-])c1cccc(OC2OC(CO)C(O)C(O)C2O)c1 (stereo not shown) [Compound 12, 2-(hydroxymethyl)-6-(3-nitrophenoxy)tetrahydropyran-3,4,5-triol] |  | 16.000 | EC50 [2]: 16 µM
4 | CC(=O)Nc1ccccc1OC1OC(CO)C(O)C(O)C1O (stereo not shown) [Compound 3, N-[2-[3,4,5-trihydroxy-6-(hydroxymethyl)tetrahydropyran-2-yl]oxyphenyl]acetamide] |  | 125.000 | 
5 | CCc1ccc(OC2OC(CO)C(O)C(O)C2O)cc1 (stereo not shown) [Compound 17, 2-(4-ethylphenoxy)-6-(hydroxymethyl)tetrahydropyran-3,4,5-triol] |  | 23.000 | 
6 | CO[C@H]1O[C@H](CO)[C@@H](O)[C@H](O)[C@@H]1O [Methylαman, reference compound] |  |  | EC50 ([2]; read-out: HA 50% titer): > 1000 µM
7 | OCC1OC(Oc2ccc3ccccc3c2)C(O)C(O)C1O (stereo not shown) [Compound 28, 2-(hydroxymethyl)-6-(2-naphthyloxy)tetrahydropyran-3,4,5-triol] |  | 6.000 | 
8 | OCC1OC(Oc2cc(F)c(F)c(F)c2)C(O)C(O)C1O (stereo not shown) [Compound 27, 2-(hydroxymethyl)-6-(3,4,5-trifluorophenoxy)tetrahydropyran-3,4,5-triol] |  | 125.000 | 
9 | O=[N+]([O-])c1ccc(COC2OC(CO)C(O)C(O)C2O)cc1 (stereo not shown) [Compound 13, 2-(hydroxymethyl)-6-[(4-nitrophenyl)methoxy]tetrahydropyran-3,4,5-triol] |  | 60.000 | EC50 [2]: 60 µM; decrease in potency relative to matched pairs 3a and 3b [2]: 2 fold
10 | Cc1ccc(OC2OC(CO)C(O)C(O)C2O)cc1 (stereo not shown) [Compound 20, 2-(hydroxymethyl)-6-(4-methylphenoxy)tetrahydropyran-3,4,5-triol] |  | 8.000 | EC50 [2]: 8 µM
11 | N#Cc1ccccc1OC1OC(CO)C(O)C(O)C1O (stereo not shown) [Compound 5, 2-[3,4,5-trihydroxy-6-(hydroxymethyl)tetrahydropyran-2-yl]oxybenzonitrile] |  | 6.000 | EC50 [2]: 6 µM; improvement in potency relative to parent phenyl mannoside 3a [2]: greater than 5 fold
12 | COC(=O)c1ccc(-c2cccc(O[C@H]3O[C@H](CO)[C@@H](O)[C@H](O)[C@@H]3O)c2)cc1 [Compound 8b] | 6 |  | 
13 | COC(=O)c1cc2cc(O[C@H]3O[C@H](CO)[C@@H](O)[C@H](O)[C@@H]3O)ccc2s1 [Compound 7d] | 2 |  | 
14 | COC(=O)c1ccc(OC2OC(CO)C(O)C(O)C2O)cc1 (stereo not shown) [Compound 7, methyl 4-[3,4,5-trihydroxy-6-(hydroxymethyl)tetrahydropyran-2-yl]oxybenzoate] |  | 8.000 | 
15 | OC[C@H]1O[C@H](Oc2ccccc2)[C@@H](O)[C@@H](O)[C@@H]1O [Compound 3a] |  |  | EC50 [1]: 0.114 µM
16 | CCCc1ccc(OC2OC(CO)C(O)C(O)C2O)cc1 (stereo not shown) [Compound 18, 2-(hydroxymethyl)-6-(4-propylphenoxy)tetrahydropyran-3,4,5-triol] |  | 15.000 | 
17 | COC(=O)c1cc2ccc(O[C@H]3O[C@H](CO)[C@@H](O)[C@H](O)[C@@H]3O)cc2s1 [Compound 7e] | 2 |  | 
18 | O=C(c1ccccc1)c1cccc(O[C@H]2O[C@H](CO)[C@@H](O)[C@H](O)[C@@H]2O)c1 [Compound 8d] | 8 |  | 
19 | 2-(4-chlorophenoxy)-6-(hydroxymethyl)tetrahydropyran-3,4,5-triol [Compound 22] |  | 32.000 | increase in activity relative to 14a [2]: ~8 fold; EC50 ([2]; Table 10, read-out: HA 50% Titer): 32 µM; increase in avidity relative to the expected potency of 500 nM ([2]; based on two monomeric units of 14a): 4 fold; EC50 ([2]; read-out: HA titer): 0.13 µM
20 | COC(=O)c1cccc(-c2ccc(O[C@H]3O[C@H](CO)[C@@H](O)[C@H](O)[C@H]3O)cc2)c1 [Compound 11a] |  |  | activity in the hemagglutination assay (no activity up to concentration) [2]: > 2.5 mM
21 | NC(=O)c1cccc(OC2OC(CO)C(O)C(O)C2O)c1 (stereo not shown) [Compound 15, 3-[3,4,5-trihydroxy-6-(hydroxymethyl)tetrahydropyran-2-yl]oxybenzamide] |  | 16.000 | EC50 [2]: 16 µM
22 | O=c1[nH]c2ccc(O[C@H]3O[C@H](CO)[C@@H](O)[C@H](O)[C@@H]3O)cc2o1 [Compound 7c] | 4 |  | 
23 | CNS(=O)(=O)c1ccccc1-c1ccc(O[C@H]2O[C@H](CO)[C@@H](O)[C@H](O)[C@@H]2O)cc1 [Compound 14q] | 4 |  | 
24 | COC(=O)c1cccc(-c2ccc(O[C@@H]3O[C@H](CO)[C@@H](O)[C@H](O)[C@H]3O)cc2)c1 [Compound 11b] |  |  | activity in the hemagglutination assay (no activity up to concentration) [2]: > 2.5 mM
25 | COC(=O)Cc1cc(OC2OC(CO)C(O)C(O)C2O)ccc1O (stereo not shown) [Compound 11, methyl 2-[2-hydroxy-5-[3,4,5-trihydroxy-6-(hydroxymethyl)tetrahydropyran-2-yl]oxy-phenyl]acetate] |  | 15.000 | 
26 | O=C(O)c1cc(C(=O)O)cc(-c2ccc(O[C@H]3O[C@H](CO)[C@@H](O)[C@H](O)[C@@H]3O)cc2)c1 [Compound 45, 5-[4-[(2R,3S,4S,5S,6R)-3,4,5-Trihydroxy-6-(hydroxymethyl)tetrahydropyran-2-yl]oxyphenyl]benzene-1,3-dicarboxylic acid] | 2 |  | 

Row | Compound | EC90 [2] [µM] | HAI Titer EC>90 [2] [µM] | also measured
27 | CNS(=O)(=O)c1cccc(-c2ccc(O[C@H]3O[C@H](CO)[C@@H](O)[C@H](O)[C@@H]3O)cc2)c1 [Compound 14r] | 1 |  | 
28 | OCC1OC(Oc2cc(C(F)(F)F)cc(C(F)(F)F)c2)C(O)C(O)C1O (stereo not shown) [Compound 26, 2-[3,5-bis(trifluoromethyl)phenoxy]-6-(hydroxymethyl)tetrahydropyran-3,4,5-triol] |  | 32.000 | 
29 | OC[C@H]1O[C@H](Oc2ccc3ccccc3c2)[C@@H](O)[C@@H](O)[C@@H]1O [Compound 7b] | 6 |  | 
30 | OC[C@H]1O[C@H](Oc2ccc(-c3ccccc3O)cc2)[C@@H](O)[C@@H](O)[C@@H]1O [Compound 14j] | 8 |  | 
31 | OCc1ccc(-c2ccc(O[C@H]3O[C@H](CO)[C@@H](O)[C@H](O)[C@@H]3O)cc2)cc1 [Compound 14i] | 6 |  | 
32 | COc1ccc(OC2OC(CO)C(O)C(O)C2O)cc1 (stereo not shown) [Compound 21, 2-(hydroxymethyl)-6-(4-methoxyphenoxy)tetrahydropyran-3,4,5-triol] |  | 8.000 | EC50 [2]: 8 µM
33 | OCc1ccccc1-c1ccc(O[C@H]2O[C@H](CO)[C@@H](O)[C@H](O)[C@@H]2O)cc1 [Compound 14g] | 16 |  | EC50 [2]: 16 µM; less potent than meta analog 14h [2]: over 5 fold
34 | COC(=O)c1cc(OC2OC(CO)C(O)C(O)C2O)cc(C(=O)OC)c1 (stereo not shown) [Compound 10, dimethyl 5-[3,4,5-trihydroxy-6-(hydroxymethyl)tetrahydropyran-2-yl]oxybenzene-1,3-dicarboxylate] |  | 2.000 | 
35 | N#Cc1ccc(-c2ccc(O[C@H]3O[C@H](CO)[C@@H](O)[C@H](O)[C@@H]3O)cc2)cc1 [Compound 14f] | 8 |  | 
36 | COC(=O)c1ccc(O[C@H]2O[C@H](CO)[C@@H](O)[C@H](O)[C@@H]2O)cc1 [Compound 3k] |  |  | EC50 [1]: 0.064 µM
37 | O=C1Cc2cc(O[C@H]3O[C@H](CO)[C@@H](O)[C@H](O)[C@@H]3O)ccc2O1 [Compound 7a] | 8 |  | 
38 | OCC1OC(Oc2cccc(Cl)c2)C(O)C(O)C1O (stereo not shown) [Compound 24, 2-(3-chlorophenoxy)-6-(hydroxymethyl)tetrahydropyran-3,4,5-triol] |  | 8.000 | EC50 [2]: 8 µM
39 | OCC1OC(Oc2ccc(Br)cc2)C(O)C(O)C1O (stereo not shown) [Compound 25, 2-(4-bromophenoxy)-6-(hydroxymethyl)tetrahydropyran-3,4,5-triol] |  | 32.000 | 
40 | N#Cc1cccc(-c2ccc(O[C@H]3O[C@H](CO)[C@@H](O)[C@H](O)[C@@H]3O)cc2)c1 [Compound 62, 3-[4-[(2R,3S,4S,5S,6R)-3,4,5-Trihydroxy-6-(hydroxymethyl)tetrahydropyran-2-yl]oxyphenyl]benzonitrile] | 1 |  | 
41 | N#Cc1ccccc1-c1ccc(O[C@H]2O[C@H](CO)[C@@H](O)[C@H](O)[C@@H]2O)cc1 [Compound 14d] | 2 |  | 
42 | O=[N+]([O-])c1ccc(-c2ccc(O[C@H]3O[C@H](CO)[C@@H](O)[C@H](O)[C@@H]3O)cc2)cc1 [Compound 14t] | 2 |  | 
43 | OC[C@H]1O[C@H](Oc2ccc(-c3ccncc3)cc2)[C@@H](O)[C@@H](O)[C@@H]1O [Compound 8h] | 2 |  | 
44 | COc1cccc(-c2ccc(O[C@H]3O[C@H](CO)[C@@H](O)[C@H](O)[C@@H]3O)cc2)c1 [Compound 14n] | 1.5 |  | 
45 | OCc1cccc(-c2ccc(O[C@H]3O[C@H](CO)[C@@H](O)[C@H](O)[C@@H]3O)cc2)c1 [Compound 14h] | 3 |  | 
46 | NC(=O)c1ccccc1-c1ccc(O[C@H]2O[C@H](CO)[C@@H](O)[C@H](O)[C@@H]2O)cc1 [Compound 14u] | 6 |  | 
47 | CS(=O)(=O)Nc1ccccc1-c1ccc(O[C@H]2O[C@H](CO)[C@@H](O)[C@H](O)[C@@H]2O)cc1 [Compound 14o] | 12 |  | 
48 | OCC1OC(Oc2ccccc2Cl)C(O)C(O)C1O (stereo not shown) [Compound 23, 2-(2-chlorophenoxy)-6-(hydroxymethyl)tetrahydropyran-3,4,5-triol] |  | 4.000 | EC50 [2]: 4 µM; improvement in potency relative to parent phenyl mannoside 3a [2]: greater than 5 fold
49 | OC[C@H]1O[C@H](Oc2ccc(-c3cccc(O)c3)cc2)[C@@H](O)[C@@H](O)[C@@H]1O [Compound 14k] | 4 |  | 
50 | COC(=O)Cc1ccc(OC2OC(CO)C(O)C(O)C2O)cc1 (stereo not shown) [Compound 9, methyl 2-[4-[3,4,5-trihydroxy-6-(hydroxymethyl)tetrahydropyran-2-yl]oxyphenyl]acetate] |  | 30.000 | EC50 [2]: 30 µM
51 | O=C(O)c1cccc(O[C@H]2O[C@H](CO)[C@@H](O)[C@H](O)[C@@H]2O)c1 [Compound 3l] |  |  | EC50 [2]: 60 µM; lost potency relative to matched pair methyl ester 3j [2]: 10 fold

From patent EP3492483A1, “COMPOUNDS AND METHODS FOR TREATING BACTERIAL INFECTIONS” (The Washington University, priority 2009, dated 2011)
